Assay results: patent publication US9585871B2, “Method for treating and curing leishmaniosis using fexinidazole” (Merial Limited, priority 2013, dated 2017)

Assay: Toxicology summary: maximum dose after oral administration, rats
Type: in vivo
Excerpt: Toxicology summary. In mice and rats, the maximum fexinidazole (FEX) dose after oral administration is 10 g/kg of body weight. […] Finally, as regards PK, labeled FEX and its metabolites were excreted within 3 days in the feces (52-58%) and urine (36-40%).

Compound: CSc1ccc(OCc2ncc([N+](=O)[O-])n2C)cc1 [Fexinidazole, fexinidazole]
- maximum dose after oral administration: 10 g/kg of body weight
